Results reported in PubChem BioAssay AID328 (DTP/NCI, 2004).
Where “and” joins values, the source holds several entries; their conditions need not be identical. Identical values can stand only once. Inconclusive results and toxic doses are left out.

Tested on: BDF1 mice, P388 leukemia ip, median survival T/C
Assay: NCI In Vivo Anticancer Drug Screen. Data for tumor model P388 Leukemia (intraperitoneal) in B6D2F1 (BDF1) mice
Settings: endpoint: median survival time, higher = longer survival
Procedure, shortened: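 Vehicle-dosed animals serve as the reference; survival of compound-dosed, tumour-implanted mice is divided by it.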

[1] = dose: 200.0 mg/kg/injection, schedule: Q04DX003 (ip), vehicle: Klucel (hydroxypropylcellulose) (HPC)
[2] = dose: 100.0 mg/kg/injection, schedule: Q01DX009 (ip), vehicle: Klucel (hydroxypropylcellulose) (HPC)
[3] = dose: 200.0 mg/kg/injection, schedule: Q01DX009 (ip), vehicle: Klucel (hydroxypropylcellulose) (HPC)
[4] = dose: 200.0 mg/kg/injection, schedule: Q04DX003 (ip), vehicle: saline sonified
[5] = dose: 400.0 mg/kg/injection, schedule: Q01DX009 (ip), vehicle: Klucel (hydroxypropylcellulose) (HPC)
[6] = dose: 400.0 mg/kg/injection, schedule: Q04DX003 (ip), vehicle: saline sonified
[7] = dose: 12.5 mg/kg/injection, schedule: Q01DX009 (ip), vehicle: saline
[8] = dose: 25.0 mg/kg/injection, schedule: Q01DX009 (ip), vehicle: saline
[9] = dose: 50.0 mg/kg/injection, schedule: Q01DX009 (ip), vehicle: saline
[10] = dose: 100.0 mg/kg/injection, schedule: Q01DX009 (ip), vehicle: saline
[11] = dose: 12.5 mg/kg/injection, schedule: Q04DX003 (ip), vehicle: Klucel (hydroxypropylcellulose) (HPC)
[12] = dose: 50.0 mg/kg/injection, schedule: Q01DX009 (ip), vehicle: saline with Tween-80
[13] = dose: 100.0 mg/kg/injection, schedule: Q01DX009 (ip), vehicle: saline with Tween-80
[14] = dose: 200.0 mg/kg/injection, schedule: Q01DX009 (ip), vehicle: saline with Tween-80
[15] = dose: 50.0 mg/kg/injection, schedule: Q01DX009 (ip), vehicle: Klucel (hydroxypropylcellulose) (HPC)
[16] = dose: 50.0 mg/kg/injection, schedule: Q04DX003 (ip), vehicle: saline

SMILES: CCN(CC)S(=O)(=O)c1ccc(C(=O)O)cc1
- T/C (dose: 100.0 mg/kg/injection, schedule: Q04DX003 (ip), vehicle: Klucel (hydroxypropylcellulose) (HPC)): 100 % of control
- T/C [1]: 104 % of control
- T/C (dose: 400.0 mg/kg/injection, schedule: Q04DX003 (ip), vehicle: Klucel (hydroxypropylcellulose) (HPC)): 100 % of control

SMILES: OCCNCc1ccccc1
- T/C (dose: 100.0 mg/kg/injection, schedule: Q04DX003 (ip), vehicle: water): 100 % of control
- T/C (dose: 400.0 mg/kg/injection, schedule: Q04DX003 (ip), vehicle: water): 113 % of control

SMILES: O=C1C(Cl)=C(Cl)C(=O)C2=C1C1c3ccccc3C2c2ccccc21
- T/C [2]: 115 % of control
- T/C [3]: 120 % of control
- T/C [4]: 109 % of control
- T/C [5]: 105 % of control
- T/C [6]: 104 % of control

SMILES: O=C(CCCl)N1CCN(C(=O)CCCl)CC1
- T/C (dose: 66.0 mg/kg/injection, schedule: Q01DX009 (ip), vehicle: Klucel (hydroxypropylcellulose) (HPC)): 104 % of control
- T/C [2]: 90 % of control
- T/C (dose: 100.0 mg/kg/injection, schedule: Q04DX003 (ip), vehicle: saline sonified): 116 % of control
- T/C (dose: 150.0 mg/kg/injection, schedule: Q01DX009 (ip), vehicle: Klucel (hydroxypropylcellulose) (HPC)): 113 % of control
- T/C [4]: 108 % of control
- T/C [5]: 95 % of control
- T/C [6]: 120 % of control

SMILES: Nc1ccc(CCCCc2ccccc2)cc1
- T/C (dose: 7.03 mg/kg/injection, schedule: Q04DX003 (ip), vehicle: saline): 104 % of control
- T/C [7]: 109 % of control
- T/C (dose: 14.06 mg/kg/injection, schedule: Q04DX003 (ip), vehicle: saline): 113 % of control
- T/C [8]: 113 % of control
- T/C (dose: 28.12 mg/kg/injection, schedule: Q04DX003 (ip), vehicle: saline): 109 % of control
- T/C [9]: 113 % of control
- T/C (dose: 56.25 mg/kg/injection, schedule: Q04DX003 (ip), vehicle: saline): 116 % of control
- T/C (dose: 75.0 mg/kg/injection, schedule: Q01DX009 (ip), vehicle: saline): 109 % of control

SMILES: C1CCNCC1.O=C([CH-]C(=O)C(F)(F)F)c1cccs1.O=C([CH-]C(=O)C(F)(F)F)c1cccs1.O=C([CH-]C(=O)C(F)(F)F)c1cccs1.O=C([CH-]C(=O)C(F)(F)F)c1cccs1.[Eu+3]
- T/C [10]: 122 % of control

SMILES: CC(=O)Nc1ccc(S(=O)(=O)N(CCO)c2ccccc2)cc1
- T/C (dose: 12.5 mg/kg/injection, schedule: Q01DX009 (ip), vehicle: saline with Tween-80): 104 % of control
- T/C [11]: 100 % of control
- T/C (dose: 25.0 mg/kg/injection, schedule: Q01DX009 (ip), vehicle: saline with Tween-80): 104 % of control
- T/C (dose: 25.0 mg/kg/injection, schedule: Q04DX003 (ip), vehicle: Klucel (hydroxypropylcellulose) (HPC)): 109 % of control
- T/C [12]: 96 % of control
- T/C (dose: 50.0 mg/kg/injection, schedule: Q04DX003 (ip), vehicle: Klucel (hydroxypropylcellulose) (HPC)): 109 % of control
- T/C [1]: 87 % of control

SMILES: Clc1ccc(-c2nc(-c3ccccc3)c(-c3ccccc3)o2)cc1
- T/C [12]: 100 % of control
- T/C [13]: 111 % of control
- T/C [14]: 116 % of control

SMILES: CC1N2C3(c4ccccc4)OC(c4ccccc4)(c4ccccc43)C12c1ccccc1 (stereo not drawn)
- T/C [15]: 104 % of control
- T/C [2]: 100 % of control
- T/C [3]: 89 % of control

SMILES: C/C(=N/NC(=O)c1ccccc1)c1ccc(Cl)cc1Cl
- T/C (dose: 3.12 mg/kg/injection, schedule: Q04DX003 (ip), vehicle: Klucel (hydroxypropylcellulose) (HPC)): 110 % of control
- T/C (dose: 6.25 mg/kg/injection, schedule: Q04DX003 (ip), vehicle: Klucel (hydroxypropylcellulose) (HPC)): 105 % of control
- T/C [11]: 100 % of control
- T/C (dose: 18.0 mg/kg/injection, schedule: Q01DX009 (ip), vehicle: Klucel (hydroxypropylcellulose) (HPC)): 100 % of control
- T/C (dose: 18.0 mg/kg/injection, schedule: Q04DX003 (ip), vehicle: Klucel (hydroxypropylcellulose) (HPC)): 100 % of control
- T/C (dose: 28.0 mg/kg/injection, schedule: Q01DX009 (ip), vehicle: Klucel (hydroxypropylcellulose) (HPC)): 104 % of control
- T/C (dose: 28.0 mg/kg/injection, schedule: Q04DX003 (ip), vehicle: Klucel (hydroxypropylcellulose) (HPC)): 100 % of control
- T/C (dose: 40.0 mg/kg/injection, schedule: Q04DX003 (ip), vehicle: Klucel (hydroxypropylcellulose) (HPC)): 104 % of control
- T/C (dose: 60.0 mg/kg/injection, schedule: Q04DX003 (ip), vehicle: Klucel (hydroxypropylcellulose) (HPC)): 110 % of control
- T/C (dose: 90.0 mg/kg/injection, schedule: Q04DX003 (ip), vehicle: Klucel (hydroxypropylcellulose) (HPC)): 110 % of control

SMILES: c1ccc(CN2CCCCC2)nc1
- T/C (dose: 5.0 mg/kg/injection, schedule: Q01DX009 (ip), vehicle: Klucel (hydroxypropylcellulose) (HPC)): 105 % of control
- T/C (dose: 5.0 mg/kg/injection, schedule: Q04DX003 (ip), vehicle: Klucel (hydroxypropylcellulose) (HPC)): 104 % of control
- T/C (dose: 10.0 mg/kg/injection, schedule: Q01DX009 (ip), vehicle: Klucel (hydroxypropylcellulose) (HPC)): 100 % of control
- T/C (dose: 10.0 mg/kg/injection, schedule: Q04DX003 (ip), vehicle: Klucel (hydroxypropylcellulose) (HPC)): 100 % of control
- T/C (dose: 20.0 mg/kg/injection, schedule: Q01DX009 (ip), vehicle: Klucel (hydroxypropylcellulose) (HPC)): 105 % of control
- T/C (dose: 20.0 mg/kg/injection, schedule: Q04DX003 (ip), vehicle: Klucel (hydroxypropylcellulose) (HPC)): 100 % of control

SMILES: CN1CC(C(=O)N2CCCCC2)C=C2c3cccc4[nH]cc(c34)CC21 (stereo not drawn)
- T/C (dose: 3.12 mg/kg/injection, schedule: Q01DX009 (ip), vehicle: saline): 95 % of control
- T/C (dose: 6.25 mg/kg/injection, schedule: Q01DX009 (ip), vehicle: saline): 113 % of control
- T/C [7]: 104 % of control
- T/C (dose: 25.0 mg/kg/injection, schedule: Q04DX003 (ip), vehicle: saline): 116 % of control
- T/C [16]: 87 % of control

SMILES: O=[N+]([O-])c1ccc2nc3c(nc2c1)-c1cccc2cccc-3c12
- T/C (dose: 100.0 mg/kg/injection, schedule: Q04DX003 (ip), vehicle: saline with Tween-80): 91 % of control
- T/C (dose: 200.0 mg/kg/injection, schedule: Q04DX003 (ip), vehicle: saline with Tween-80): 100 % of control
- T/C (dose: 400.0 mg/kg/injection, schedule: Q04DX003 (ip), vehicle: saline with Tween-80): 91 % of control

SMILES: CC1(C)CC(=O)c2ccccc21
- T/C [8]: 99 % of control
- T/C [9]: 115 % of control
- T/C [16]: 102 % of control
- T/C [10]: 95 % of control
- T/C (dose: 100.0 mg/kg/injection, schedule: Q04DX003 (ip), vehicle: saline): 100 % of control
- T/C (dose: 200.0 mg/kg/injection, schedule: Q04DX003 (ip), vehicle: saline): 109 % of control

SMILES: NC1(C(=O)O)CCCC1
- T/C (dose: 20.0 mg/kg/injection, schedule: Q01DX010 (ip), vehicle: water): 100 % of control
- T/C (dose: 22.5 mg/kg/injection, schedule: Q01DX010 (ip), vehicle: saline): 100 % of control and 120 % of control
- T/C (dose: 25.0 mg/kg/injection, schedule: Q01DX009 (ip), vehicle: carboxymethylcellulose (CMC)): 93 % of control
- T/C (dose: 45.0 mg/kg/injection, schedule: Q01DX010 (ip), vehicle: saline): 110 % of control
- T/C (dose: 50.0 mg/kg/injection, schedule: Q01DX009 (ip), vehicle: carboxymethylcellulose (CMC)): 92 % of control
- T/C (dose: 80.0 mg/kg/injection, schedule: Q01DX010 (ip), vehicle: water): 110 % of control
- T/C (dose: 90.0 mg/kg/injection, schedule: Q01DX010 (ip), vehicle: saline): 185 % of control
- T/C [13]: 100 % of control
- T/C (dose: 200.0 mg/kg/injection, schedule: Q01DX009 (ip), vehicle: carboxymethylcellulose (CMC)): 87 % of control
- T/C [14]: 90 % of control

SMILES: OC/C=[CH]\[Sn]([c]1ccccc1)([c]1ccccc1)[c]1ccccc1
- T/C [12]: 89 % of control
- T/C [13]: 115 % of control
- T/C [14]: 106 % of control

SMILES: S=C(NC1CCCCC1)NC1CCCCC1
- T/C [15]: 113 % of control
- T/C (dose: 100.0 mg/kg/injection, schedule: Q01DX001 (ip), vehicle: Klucel (hydroxypropylcellulose) (HPC)): 109 % of control
- T/C [2]: 86 % of control
- T/C (dose: 200.0 mg/kg/injection, schedule: Q01DX001 (ip), vehicle: Klucel (hydroxypropylcellulose) (HPC)): 113 % of control
- T/C [3]: 100 % of control
- T/C (dose: 400.0 mg/kg/injection, schedule: Q01DX001 (ip), vehicle: Klucel (hydroxypropylcellulose) (HPC)): 100 % of control
